How the values were obtained:
TU5 tumoral cells = experiment: Macrophage cytotoxic activity towards TU5 tumoral cells (peritoneal cells of mice treated i.p., collected seven days later and incubated with tumor target cells); assay type: cell-based, mouse; details: peritoneal cells collected 7 days later, 48 h incubation with TU5 tumoral cells, colorimetric at 570 nm
Experimental: The experimental procedure to evaluate this activity is as follows: groups of 4 mice are treated i.p. with the tested compounds and then, seven days later, peritoneal cells are collected and plated for 2 hours at 37° C. After this period the walls are washed to eliminate the non adherent cells, tumor target cells are then added and the incubation is prolonged for 48 hours. At the end of this period the target cells viability is evaluated by a colorimetric method and quantified at 570 nm.
The following table summarizes the immunostimulating activity data of some compounds of the invention, obtained according to the hereabove experimental procedure, towards TU5 tumoral cells (Eur. J. Immunol. 1982, 12, 320)
Cytotoxic activity is calculated as % inhibition of TU5 tumoral cells growth using the following formula [formula] where
O.D.A.=optical density from cocultured TU5 and vehicol treated macrophages
O.D.B.=optical density from vehicol treated macrophages alone
O.D.C=optical density from cocultured TU5 and FCE compound treated macrophages
O.D.D=optical density from FCE compound treated macrophages alone.

[1] = Approximate acute toxicity (LD50) in the mouse, per os; details: in vivo, po, single administration of increasing doses, measured on seventh day after the day of treatment
Experimental: For example, the approximate acute toxicity (LD50) in the mouse of the compound 4-hydroxy-N-(2-pyridyl)-cinnoline-3-carboxamide determined per os with single administration of increasing doses and measured on the seventh day after the day of treatment, is higher than 800 mg/kg. Analogous toxicity data have been found for the other compounds of the invention.

For O=C(Nc1ccccn1)c1nnc2ccccc2c1O [FCE 24089, 4-hydroxy-N-(2-pyridyl)-cinnoline-3-carboxamide], which “Macrophage cytotoxic activity (% inhibition)” value (TU5 tumoral cells; 10 mg/kg i.p. to mice) is on record?
The value was 90%.

What about the LD50 at 168 h [1] of the same molecule?
The LD50 at 168 h was > 800 mg/kg.

For O=C(Nc1ccccc1)c1nnc2ccccc2c1O [FCE 25008, 4-hydroxy-N-phenyl-cinnoline-3-carboxamide], which “Macrophage cytotoxic activity (% inhibition)” value (TU5 tumoral cells; 50 mg/kg i.p. to mice) is on record?
The value was 71%.

Which “Macrophage cytotoxic activity (% inhibition)” value (TU5 tumoral cells; 50 mg/kg i.p. to mice) does the source give for CN(C(=O)c1nnc2ccccc2c1O)c1ccccn1 [FCE 25051, 4-hydroxy-N-methyl-N-(2-pyridyl)-cinnoline-3-carboxamide] here?
Its value is 80%.

Source: US4826837A, “Cinnoline-carboxamides and process for their preparation” (Farmitalia Carlo Erba s.r.l., priority 1987, dated 1989)
